Assays:
3T3-L1 adipocytes = assay: Lipogenesis in 3T3-L1 adipocytes (Oil Red O staining); assay type: cell-based, Murine
Description: The effect of (+)-KDT501 on lipogenesis was evaluated in 3T3-L1 adipocytes.
Murine 3T3-L1 preadipocytes (ATCC, Rockville, Md.) were maintained in DMEM (Invitrogen, Rockville, Md.) supplemented with 10% fetal bovine serum (FBS; ATCC). As preadipocytes, 3T3-L1 cells have a fibroblastic appearance. They replicate in culture until they form a confluent monolayer, after which cell-cell contact triggers G0/G1 growth arrest. Subsequent stimulation with 3-isobutyl-1-methylxanthane, dexamethasone, and high does of insulin for two days prompts the cells to undergo post-confluent mitotic clonal expansion, exit the cell cycle, and begin to express adipocyte-specific genes. Approximately five days after induction of differentiation, the cells display the characteristic lipid-filled adipocyte phenotype.
Cells were seeded at an initial density of approximately […] in 24-well plates and allowed to grow for 2 days to confluence. […]
Microscopic evaluation was performed at day 0 and every two days throughout testing to assess preadipocyte differentiation to adipocyte morphology. Intracellular lipid was quantified with Oil Red O staining. […] 150 μL of sample was transferred to a 96 well plate and absorbance was measured at 530 nm using a plate reader (Thermo Electron Corp.). […]

[1] = molecular target: T1, angiotensin II receptor type II (AGTR2) (Homo sapiens, UniProt P50052); assay: Competitive binding to AGTR2 ([125I]CGP 42112A); settings: binding target AGTR2; competitor ligand Angiotensin-II
T1 sequence (P50052 1-363): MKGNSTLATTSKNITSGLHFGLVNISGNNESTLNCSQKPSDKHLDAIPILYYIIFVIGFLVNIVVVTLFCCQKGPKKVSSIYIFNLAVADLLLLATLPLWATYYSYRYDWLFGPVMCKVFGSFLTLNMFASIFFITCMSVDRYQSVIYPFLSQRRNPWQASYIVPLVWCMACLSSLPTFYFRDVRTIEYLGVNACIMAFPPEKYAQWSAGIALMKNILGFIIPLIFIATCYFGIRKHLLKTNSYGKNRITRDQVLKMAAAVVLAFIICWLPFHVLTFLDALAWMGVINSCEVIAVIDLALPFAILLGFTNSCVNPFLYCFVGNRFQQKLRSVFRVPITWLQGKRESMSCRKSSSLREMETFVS

Human DAPK1 = Human DAPK1 (Homo sapiens, UniProt P53355); assay: DAPK1 activity, cell free kinase assay; assay type: biochemical
Description: The effect of (+)-KDT501 and (−)-KDT501 on death-associated protein kinase 1 (DAPK1) activity was evaluated.
Human DAPK1 was incubated with 8 mM MOPS, pH 7.0, 0.2 mM EDTA, 250 μM ZIP peptide substrate ([…]), 10 mM MgOAc, and [γ-^33P-ATP] (specific activity approximately 500 cpm/pmol, concentration as required). (+)-KDT501 or (−)-KDT501 at varying concentrations (100, 30, 10, 1, 0.3, 0.1, 0.03, 0.01 μM) were added to the reaction mixture. The reaction was initiated by addition of the MgATP mix. After incubation for 40 minutes at room temperature, the reaction was stopped by addition of 3% phosphoric acid solution. 10 μL of reaction mixture was spotted onto a P30 filtermat, washed three times for five minutes in 75 mM phosphoric acid and once in methanol prior, then dried and subjected to scintillation counting.

GPR120 = molecular target: T2, GPR120 (Homo sapiens, UniProt Q5NUL3); assay: GPR120 activity, intracellular calcium response in CHO-K1/GPR120/Gα15 cells; assay type: cell-based; settings: CHO-K1/GPR120/Gα15 cells; calcium response; unit inferred; read-out: GPR120 agonistic activity EC50
T2 sequence (Q5NUL3 1-361): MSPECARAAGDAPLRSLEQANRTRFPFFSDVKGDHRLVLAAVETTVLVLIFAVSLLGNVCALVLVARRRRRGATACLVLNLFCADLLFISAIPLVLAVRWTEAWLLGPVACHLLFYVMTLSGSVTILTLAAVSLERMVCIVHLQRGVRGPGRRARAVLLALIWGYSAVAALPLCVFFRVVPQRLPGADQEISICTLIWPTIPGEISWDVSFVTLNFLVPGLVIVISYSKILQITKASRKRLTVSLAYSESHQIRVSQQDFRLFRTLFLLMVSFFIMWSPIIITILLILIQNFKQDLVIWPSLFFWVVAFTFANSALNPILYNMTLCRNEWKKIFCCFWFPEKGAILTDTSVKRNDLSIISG
Description: GPR120 activity was measured by intracellular calcium response. CHO-K1/GPR120/Gα15 cells were regularly passaged to maintain optimal cell health and cultured in Ham's F12 supplemented with 10% fetal bovine serum, 200 μg/mL zeocin, and 100 μg/mL hygromycin. Cells were seeded in a 384-well black-wall, clear-bottom plate at a density of 20,000 cell per well in 20 μL of growth medium 18 hours prior to the start of the experiment, and maintained at 37° C./5% CO2. Cells were loaded with calcium-4, and baseline fluorescence readings were obtained from 1 second to 20 seconds using a fluorescent imaging plate reader (FLIPR). At 20 seconds, (+)-KDT501 (5× final concentration) was added to the reading plate, and the fluorescence signal was monitored for 100 seconds (21 seconds to 120 seconds). α-linolenic acid (LA), eicosapentaenoic acid (EPA), and docosahexaenoic acid (DHA) were used as controls. Data acquisition and analysis was performed using ScreenWorks (version 3.1) and exported to Excel. The average fluorescence value for the first 20 seconds was calculated as the baseline reading. The relative fluorescent unit (ΔRFU) intensity values were calculated with the maximal fluorescent units (21 s to 120 s), subtracting the baseline reading. Data analysis wizard written by GenScript was used to analyze EC50. Dose response curves of antagonist were fitted using the GraphPad Prism 4 four parameter logistic equation Y=Bottom+(Top−Bottom)/(1+10^((LogIC50−X)*HillSlope)), where X is the logarithm of concentration and Y is response.

Sequence of Human DAPK1 (P53355 whole entry): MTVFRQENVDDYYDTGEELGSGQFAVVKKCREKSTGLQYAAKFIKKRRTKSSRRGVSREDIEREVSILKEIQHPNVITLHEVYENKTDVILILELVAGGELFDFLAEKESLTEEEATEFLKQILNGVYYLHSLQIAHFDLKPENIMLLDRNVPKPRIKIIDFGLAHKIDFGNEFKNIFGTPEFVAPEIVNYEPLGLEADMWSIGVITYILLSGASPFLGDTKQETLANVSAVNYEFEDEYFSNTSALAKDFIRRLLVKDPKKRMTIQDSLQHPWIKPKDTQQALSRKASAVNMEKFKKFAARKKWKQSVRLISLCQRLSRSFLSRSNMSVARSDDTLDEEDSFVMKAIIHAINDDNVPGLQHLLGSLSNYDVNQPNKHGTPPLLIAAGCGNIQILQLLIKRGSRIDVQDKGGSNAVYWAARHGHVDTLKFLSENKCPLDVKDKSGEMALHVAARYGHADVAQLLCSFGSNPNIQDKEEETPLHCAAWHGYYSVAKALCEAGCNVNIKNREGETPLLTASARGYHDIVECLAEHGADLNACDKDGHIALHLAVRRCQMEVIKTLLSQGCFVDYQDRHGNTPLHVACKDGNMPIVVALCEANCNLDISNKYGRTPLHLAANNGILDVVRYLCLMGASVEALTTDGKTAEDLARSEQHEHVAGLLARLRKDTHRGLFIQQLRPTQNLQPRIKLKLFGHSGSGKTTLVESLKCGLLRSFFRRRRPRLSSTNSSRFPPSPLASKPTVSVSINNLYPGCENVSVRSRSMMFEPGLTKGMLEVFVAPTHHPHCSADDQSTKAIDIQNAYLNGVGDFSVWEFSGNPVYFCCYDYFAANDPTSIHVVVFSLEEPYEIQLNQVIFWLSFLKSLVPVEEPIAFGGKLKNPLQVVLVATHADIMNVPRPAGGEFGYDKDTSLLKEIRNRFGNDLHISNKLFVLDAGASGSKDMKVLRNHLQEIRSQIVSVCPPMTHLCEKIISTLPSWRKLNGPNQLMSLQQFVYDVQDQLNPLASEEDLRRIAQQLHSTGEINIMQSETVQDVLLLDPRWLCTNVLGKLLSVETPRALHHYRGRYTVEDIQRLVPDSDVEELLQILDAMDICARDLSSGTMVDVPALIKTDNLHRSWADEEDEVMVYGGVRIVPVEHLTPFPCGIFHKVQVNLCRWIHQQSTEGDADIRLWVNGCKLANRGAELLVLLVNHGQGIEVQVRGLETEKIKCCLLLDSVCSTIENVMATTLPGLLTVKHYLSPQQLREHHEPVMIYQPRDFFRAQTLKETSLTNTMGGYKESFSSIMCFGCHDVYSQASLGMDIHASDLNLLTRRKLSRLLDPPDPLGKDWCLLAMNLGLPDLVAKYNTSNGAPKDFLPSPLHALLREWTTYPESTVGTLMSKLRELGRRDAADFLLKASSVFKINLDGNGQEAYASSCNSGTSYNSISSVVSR

CC(C)CCC(=O)[C@@]1(O)C(O)=C(C(=O)CC(C)C)C(=O)[C@@H]1CCC(C)C.[K] [(+)-KDT501, (+)-(4S,5R)-3,4-dihydroxy-2-(3-methylbutanoyl)-5-(3-methylbutyl)-4-(4-methylpentanoyl)cyclopent-2-en-1-one potassium salt]
lipogenesis (intracellular lipid, Oil Red O) (3T3-L1 adipocytes; 3T3-L1 adipocytes, 6.25, 12.5, and 25 μM): increased lipogenesis in 3T3-L1 adipocytes in a statistically significant manner
adipogenesis (3T3-L1 adipocytes; 3T3-L1 murine fibroblast model): induce both lipogenesis and adipogenesis in a dose-dependent manner
IC50 [1]: 14 µM
Ki [1]: 7.1 µM
nH [1]: 1.4
fold difference in DAPK1 IC50 between the two compounds (Human DAPK1; (+)-KDT501 versus (−)-KDT501): ~15 fold
IC50 (Human DAPK1; cell free assay): 2.65 µM
EC50 (GPR120): 30.3 µM
